Test [1] addresses IKZF3 130-189aa Q147A N149E Q150V S154K (AEVK) ZF-GFP (Homo sapiens, UniProt Q96SW2+Q9UKT9, N149E/Q147A/Q150V/S154K). The test can be described thus: GFP degradation flow cytometry assay, AEVK mutant ZF-eGFP. It is filed as cell-based. How it is done:
(§1) The following method was used to generate lentiviral vectors for plasmids tested in library hit confirmation experiments: WT, QPIS, ANQS, APIS, HEIP, FEVP, WEIK, FDIP, AEVK, WNQS, WEIS, WNIQ, and WDIA. HEK293T cells were seeded into 6 well TC-treated cell culture dishes (Falcon) at 7×10^5 cells per well and incubated overnight at 37° C. and 5% CO2. […] In a separate tube 2 μL of PEIPro (Polyplus) was added to 100 μL of OptiMEM. The solution containing PEIPro and DNA was mixed and incubated at room temperature for 15 minutes to create the transfection mixture. The transfection mixture was added to cells and incubated for 5-6 hours at 37° C. and 5% CO2. After 2 days, the supernatant was harvested and fresh media was added to cells. 24 hours later, the supernatant was harvested and combined with the first supernatant harvested. Supernatant was centrifuged at 2000×g room temperature for 5 minutes, then the supernatant was filtered through a 0.45 μm cellulose acetate syringe filter and frozen at −80° C. […]
(§2) Jurkat cells were added to 96 well U-bottom assay plates (Falcon) at 1×10^5 cells per well and treated with compounds for 18 hours at 37° C. and 5% CO2. […] Data was analysed using FlowJo 10.8.1 (BD).
(§3) Having assessed the broad trends from this library screen, the sequences with the highest log FC values for A63 and B08 were selected and transduced into separate Jurkat cell lines. […]
A general note: A flow cytometer gives signals particle by particle.

Test [2] addresses IKZF3 130-189aa Q147W N149E Q150I (WEIS) ZF-GFP (Homo sapiens, UniProt Q96SW2+Q9UKT9, N149E/Q147W/Q150I). As to the kind of experiment: GFP degradation flow cytometry assay, WEIS mutant ZF-eGFP. It is filed as cell-based. How it is done: as §1, §2, §3
Setting [3] is: from pDC50 values, 12 concentrations 5 nM-10 μM.

Chain of IKZF3 130-189aa Q147W N149E Q150I (WEIS) ZF-GFP (Q9UKT9 130-189 Q147W/N149E/Q150I): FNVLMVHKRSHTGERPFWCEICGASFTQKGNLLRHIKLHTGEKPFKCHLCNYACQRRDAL
Chain of IKZF3 130-189aa Q147W N149E Q150I (WEIS) ZF-GFP (Q96SW2 whole entry): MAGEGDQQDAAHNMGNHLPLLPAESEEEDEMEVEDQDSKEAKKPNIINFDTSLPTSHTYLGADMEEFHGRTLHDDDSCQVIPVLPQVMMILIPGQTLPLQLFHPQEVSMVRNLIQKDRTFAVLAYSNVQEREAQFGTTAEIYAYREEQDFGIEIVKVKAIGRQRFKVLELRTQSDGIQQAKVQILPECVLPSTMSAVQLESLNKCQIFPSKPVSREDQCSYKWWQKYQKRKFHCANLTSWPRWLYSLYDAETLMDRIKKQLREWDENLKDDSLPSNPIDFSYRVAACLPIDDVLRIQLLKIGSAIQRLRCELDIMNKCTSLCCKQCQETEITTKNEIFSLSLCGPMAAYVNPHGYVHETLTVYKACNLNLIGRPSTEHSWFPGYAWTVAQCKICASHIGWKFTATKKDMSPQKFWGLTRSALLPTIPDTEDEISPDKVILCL
Chain of IKZF3 130-189aa Q147A N149E Q150V S154K (AEVK) ZF-GFP (Q9UKT9 130-189 Q147A/N149E/Q150V/S154K): as the sequence (Q9UKT9 130-189 Q147W/N149E/Q150I) above, with W18A, I21V, S25K counted along it
Chain of IKZF3 130-189aa Q147A N149E Q150V S154K (AEVK) ZF-GFP (Q96SW2 whole entry): as the sequence (Q96SW2 whole entry) above

With `CC(C)(C)c1ccc2c(c1)C(=O)N(C1CCC(=O)NC1=O)C2=O` (stereo not shown) [A63, 5-(tert-butyl)-2-(2,6-dioxopiperidin-3-yl)isoindoline-1,3-dione], the percent degradation of ZF-GFP reporter at up to 10 µM in test [1] (18 h, 10 μM, Jurkat, flow cytometry concentration curve, read-out: degradation of the top mutant ZF-GFP (AEVK)) is around 100%. Further, the “selectivity compared to the WT ZF (AEVK)” value in test [1] (setting [3]) is recorded as “around 30 ×”.
For `CN1CCN(c2ccc3c(c2)C(=O)N(C2CCC(=O)NC2=O)C3=O)CC1` (stereo not shown) [B08, 2-(2,6-dioxopiperidin-3-yl)-5-(4-methylpiperazin-1-yl)isoindoline-1,3-dione], in test [2] (18 h, 10 μM, Jurkat, flow cytometry concentration curve, read-out: degradation of the top mutant ZF-GFP (WEIS)), the inhibition at up to 10 µM was around 100%. Besides, the “selectivity compared to the WT ZF (WEIS)” value in test [2] (setting [3]) is reported as “around 30 ×”.

Values taken from US20260284208A1, “SYSTEM” (Oxford University Innovation Limited, priority 2023, published 2026).
